{
  "source": "patent US11202836B2",
  "about": "“PSMA targeted conjugate compounds and uses thereof” (CASE WESTERN RESERVE UNIVERSITY, priority 2018, dated 2021)",
  "key": {"[1]": {"tested_on": "PC3pip cells", "assay": "Example 1 cytotoxicity assay (Dojindo CCK8), PSMA-expressing cells", "type": "cell-based", "settings": "continuous 48 hours", "description": "(§1) PC3Pip and PC3Flu cells (2000 cells/100 μL/well) were plated in 96 well plates and rested for 24 hours to adhere to the plate surface. To each well, we added 10 μL of an 11× concentrated solution of doxorubicin or conjugate. Each drug dose was tested in groups of six wells. Dojindo CCK8 assays were used to determine relative cell survival of treated wells compared with untreated controls. This is a […] assay for determination of cell viability and proliferation. A water-soluble tetrazolium salt, WST-8, is reduced by dehydrogenase activity in the cell which produces an orange dye with relative amounts quantified by absorbance. Briefly, 10 μL assay solution was added to each well, the plate was left to incubate while orange color was produced, the absorption of the solution in the plate was read at 450 nm, and the cell viabilities were calculated."}, "[2]": {"tested_on": "PC3Pip flank tumors", "assay": "Example 1 mouse PC3Pip flank tumor xenograft study", "type": "in vivo, mice", "settings": "2 mg/kg doxorubicin or molar equivalent, day 0, 7, 14, i.v.", "description": "All animal procedures were performed according to the protocols approved by the Institutional Animal Care and Use Committee (IACUC). Our approval is Case Western Reserve University IACUC #2015-0033. Athymic nude mice aged 6-8 weeks were implanted subcutaneously with 1×10^6 PC3Pip cells in 100 μL Matrigel on the right flank. Tumors were allowed to grow for two weeks. Mice were then treated with three doses of free doxorubicin or PSMA-1-MMCCH-Dox in PBS on day 0, 7, and 14 of the study via tail vein injection. Dose used was 2 mg/kg doxorubicin, or the equivalent molar dosage of the PSMA-targeted prodrug. Tumor dimensions were measured using calipers twice per week, and mouse weights were recorded on these days, as well. The study duration was 21 days."}, "[3]": {"tested_on": "PC3flu cells", "assay": "Example 1 cytotoxicity assay (Dojindo CCK8), PSMA-negative cells", "type": "cell-based", "settings": "continuous 48 hours", "description": "as §1"}, "[4]": {"tested_on": "PC3Pip and PC3Flu cells", "assay": "Example 1 in vitro cellular uptake (doxorubicin fluorescence microscopy)", "type": "cell-based", "settings": "1 μM, 90 minutes or 48 hours", "description": "PC3Pip and PC3flu cells (1.5×10^5) were plated on coverslips and allowed to adhere for 36-48 hours. Cells were incubated in 1 μM of free doxorubicin or the various PSMA-1-Doxorubicin conjugates in RPMI media. Similar experiments are reported widely in the literature, with doses usually in the μM range because of doxorubicin's relatively dim fluorescence, at least compared with some of the commercially available dyes used in our lab. This dose was chosen to balance that relatively dim fluorescence with a goal of attempting to maintain selectivity.\nNext, cells were washed 3 times with RPMI media, fixed with 4% paraformaldehyde for 10 minutes, and washed twice with phosphate-buffered saline (PBS). The cells were counterstained with DAPI nuclear staining, mounted on microscope slides with a 50% mounting solution mixture of PBS and glycol, and the coverslips were sealed with clear nail polish. Fluorescent imaging was performed with Leica DM4000B fluorescence microscopy. DAPI imaging used the Blue filter with excitation/emission at 410/455 nm. Doxorubicin was imaged with the Texas Red filter with Ex/Em 587/612 nm."}, "[5]": {"tested_on": "α-tubulin", "assay": "Immunofluorescence analysis of alpha-tubulin in PC3pip and PC3flu cells", "type": "cell-based", "settings": "5 nM, 24 hours", "description": "Cells on coverslips at about 70% confluency were incubated with 5 nM of MMAE, PSMA-1-VcMMAE-Cy5.5 or PSMA-1-McMMAE-Cy5.5 for 24 hours. Cells were washed and fixed with 4% paraformaldehyde for 10 minutes, permeabilized with 0.1% Triton™ X-100 for 10 minutes, and blocked with 1% BSA for 1 hour at room temperature. Alpha-tubulin (B5-1-2) Alexa Fluor 488 Mouse Monoclonal Antibody (Invitrogen) was then added at 2 μg/mL in 0.1% BSA and incubated for 3 hours at room temperature. Cells were counterstained with DAPI, mounted with Fluor-Mount aqueous mounting solution, and observed under Leica DM4000B fluorescence microscopy at 40×."}, "[6]": {"assay": "Maximum tolerated dose (single i.v. dose)", "type": "in vivo, mice", "settings": "single dose i.v., tumor-free athymic nude mice, 14 days", "from_the_text": "Mice were monitored daily for 14 days."}, "[7]": {"tested_on": "PC3pip cells", "assay": "In vitro cytotoxicity assay (CCK-8, 72 h), PSMA-positive cells", "type": "cell-based", "settings": "72 hours; PC3flu IC50 over PC3pip IC50", "description": "Cells (1,000/well) were seeded in 96-well culture plates the day before treatment. Cells were incubated with various concentrations of drugs for 72 hours and cell viability evaluated by CCK-8 (Dojindo). The concentration required to reach 50% of cell proliferation was determined (IC50) by GraphPad Prism 3.0."}, "[8]": {"tested_on": "heterotopic PC3pip tumors", "assay": "Heterotopic PC3pip tumor survival / antitumor study", "type": "in vivo", "from_the_text": "Male athymic nude mice were implanted subcutaneously with 1×10^6 of PC3pip cells under the right dorsum of the mice. When tumor size reached approximately 100 mm^3 (tumor volume=Length×width^2/2), mice received drugs through tail vein injection. […] Animals were weighed and tumor size measured every other day for 90 days. Cures were defined as no tumor present at end of the 90-day study. When tumors became too large or animals were moribund they were euthanized. Five mice were used in each group."}, "[9]": {"biological_target": "T1, PSMA (Homo sapiens, UniProt Q04609)", "T1 construct": "expressed in transfected cells; host or cells: PC3pip cells (retrovirally transfected, from Dr. Michel Sadelain, MSKCC)", "T1 sequence (Q04609 whole entry)": "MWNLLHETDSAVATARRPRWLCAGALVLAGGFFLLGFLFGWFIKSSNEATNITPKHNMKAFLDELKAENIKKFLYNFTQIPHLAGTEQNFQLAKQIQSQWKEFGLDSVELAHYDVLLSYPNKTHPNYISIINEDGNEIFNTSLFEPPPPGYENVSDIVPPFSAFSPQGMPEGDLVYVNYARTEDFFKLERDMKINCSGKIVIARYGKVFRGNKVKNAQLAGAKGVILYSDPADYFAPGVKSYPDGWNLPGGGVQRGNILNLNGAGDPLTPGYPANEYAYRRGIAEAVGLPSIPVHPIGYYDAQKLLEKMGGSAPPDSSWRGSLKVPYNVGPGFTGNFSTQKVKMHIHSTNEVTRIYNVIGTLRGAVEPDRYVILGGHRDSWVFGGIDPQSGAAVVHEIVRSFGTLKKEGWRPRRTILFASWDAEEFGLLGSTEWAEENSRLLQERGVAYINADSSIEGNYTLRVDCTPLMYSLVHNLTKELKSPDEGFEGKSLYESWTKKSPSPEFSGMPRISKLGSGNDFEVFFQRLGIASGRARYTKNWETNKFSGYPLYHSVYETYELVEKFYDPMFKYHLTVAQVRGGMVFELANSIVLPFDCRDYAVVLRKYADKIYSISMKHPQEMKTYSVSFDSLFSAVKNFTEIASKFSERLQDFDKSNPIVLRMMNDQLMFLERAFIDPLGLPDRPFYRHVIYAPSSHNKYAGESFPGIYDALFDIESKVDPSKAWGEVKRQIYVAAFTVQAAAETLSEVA", "assay": "Competitive binding assay against 3H-ZJ24 on PC3pip cells", "settings": "10 nM 3H-ZJ24, read-out: IC50, competition binding to PSMA", "description": "The assay was carried as previously reported by incubation PC3pip cells with different concentrations of drug conjugates in the presence of 10 nM N—[N—[(S)-1,3-dicarboxypropyl]carbamoyl]-S-[^3H]-methyl-L-cysteine (^3H-ZJ24) (GE Healthcare Life Sciences, Pittsburgh, Pa.). Radioactivity of cell pellet was counted by scintillation counter. The concentration required to inhibit 50% of binding was determined (IC50) by GraphPad Prism 3.0."}},
  "note": "*1 amine or outer side, *2 acyl side, *3 side chain or, on linkers, in order; H or OH if unused. Where a SMILES comes first, the peptide text is derived from it. [ ]: non-standard residue; d: D form. The star is where a group is joined. Dolaproine = CO[C@@H]([C@@H]1CCCN1)[C@@H](C)C(=O)O; Dil = CC[C@H](C)[C@H](NC)[C@@H](CC(=O)O)OC; γGlu = O=C(O)[C@H](CCC(=O)[*:2])N[*:1]; X4 = C[C@@H](N*)[C@@H](O)c1ccccc1; X1 = O=C(C1CCC(CN[*:1])CC1)[*:2]; NMeV = CN[C@H](C(=O)O)C(C)C; CO = O=C([*:1])[*:2]; Ahx = NCCCCCC(=O)O",
  "data": [
    {"smiles": "COc1cccc2c1C(=O)c1c(O)c3c(c(O)c1C2=O)C[C@@](O)(C(=O)CO)C[C@@H]3O[C@H]1C[C@H](N)[C@H](O)[C@H](C)O1", "note": "[doxorubicin]", "values": [
      {"measurement": "growth inhibition of PC3Pip cells", "setting": "[1]", "result": "potent, equal growth inhibition"},
      {"measurement": "tumor growth", "setting": "[2]", "result": "more rapid tumor growth"},
      {"measurement": "weight loss over the duration of the study", "setting": "[2]; 21 days", "result": 17.3, "unit": "%"},
      {"measurement": "growth inhibition of PC3Flu cells", "setting": "[3]", "result": "potent, equal growth inhibition"},
      {"measurement": "subcellular pattern of doxorubicin signal", "setting": "[4]", "result": "primarily in the nucleus"},
      {"measurement": "uptake in PC3Pip compared with PC3Flu cells", "setting": "[4]", "result": "equally seen in PC3Pip and PC3Flu cell lines"}
    ]},
    {"smiles": "CC[C@H](C)[C@@H]([C@@H](CC(=O)N1CCC[C@H]1[C@H](OC)[C@@H](C)C(=O)N[C@H](C)[C@@H](O)c1ccccc1)OC)N(C)C(=O)[C@@H](NC(=O)[C@@H](NC)C(C)C)C(C)C", "note": "[MMAE, monomethyl auristatin E, reference compound] (H-[NMeV]V[Dil][Dolaproine]-X4)", "values": [
      {"measurement": "disruption of α-tubulin", "setting": "[5]", "result": "non-selective tubulin disruption"},
      {"measurement": "maximum tolerated dose (MTD)", "setting": "[6]", "result": 700, "unit": "nmol/kg"},
      {"measurement": "selectivity, differential cytotoxicity PC3pip vs PC3flu cells", "setting": "[7]", "result": "no selectivity"},
      {"measurement": "time by which all mice died", "setting": "[8]; 160 nmol/kg", "result": "≤ 36", "unit": "days"},
      {"measurement": "tumor growth", "setting": "[8]; 160 nmol/kg i.v. every 4 days, 5 doses", "result": "relatively ineffective at inhibiting tumor growth"}
    ]},
    {"smiles": "NCCCC[C@H](NC(=O)[C@H](CCC(=O)O)NC(=O)[C@H](CCC(=O)O)NC(=O)[C@H](CCC(=O)O)NC(=O)CCCCCNC(=O)C1CCC(CNC(=O)CC[C@H](NC(=O)N[C@@H](CCC(=O)O)C(=O)O)C(=O)O)CC1)C(N)=O", "note": "(stereo partly drawn) [PSMA-1] ({Glu-CO-γGlu}-[X1][Ahx]EEEK-NH2; C-terminus assumed)", "values": [
      {"measurement": "IC50", "setting": "[9]", "result": 2.3, "unit": "nM"}
    ]}
  ]
}
